From PubChem BioAssay (NCI)
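All cell lines were grown in 96-well plates and treated with compound for 48 hours. The concentration for 50% growth inhibition is given as GI50. The concentration for full growth arrest is given as TGI.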

Assays:
Experiment in all cases: NCI anticancer screen, dose series, 48 h
MDA-N = test system: MDA-N
CCRF-CEM leukemia = test system: CCRF-CEM leukemia
SNB-19 CNS = test system: SNB-19 CNS
CAKI-1 renal = test system: CAKI-1 renal
MDA-MB-435 = test system: MDA-MB-435
SF-295 CNS = test system: SF-295 CNS
MCF7 breast = test system: MCF7 breast
TK-10 renal = test system: TK-10 renal
SK-MEL-5 melanoma = test system: SK-MEL-5 melanoma
MOLT-4 leukemia = test system: MOLT-4 leukemia
PC-3 prostate = test system: PC-3 prostate
HT29 colon = test system: HT29 colon
786-0 renal = test system: 786-0 renal
RPMI-8226 leukemia = test system: RPMI-8226 leukemia
HCT-116 colon = test system: HCT-116 colon

Row | SMILES | TGI (MDA-N) [µM] | TGI (CCRF-CEM leukemia) [µM] | TGI (SNB-19 CNS) [µM] | TGI (CAKI-1 renal) [µM] | TGI (MDA-MB-435) [µM] | TGI (SF-295 CNS) [µM] | TGI (MCF7 breast) [µM] | TGI (TK-10 renal) [µM] | TGI (SK-MEL-5 melanoma) [µM] | TGI (MOLT-4 leukemia) [µM] | TGI (PC-3 prostate) [µM] | TGI (HT29 colon) [µM] | TGI (786-0 renal) [µM] | TGI (RPMI-8226 leukemia) [µM] | TGI (HCT-116 colon) [µM] | GI50 (SNB-19 CNS) [µM] | GI50 (CAKI-1 renal) [µM] | GI50 (HCT-116 colon) [µM] | GI50 (HT29 colon) [µM]
1 | O=C1CSC(/C=C/c2ccccc2)N1c1ccc(-c2ccc(-n3c(-c4ccccc4)nc4ccccc4c3=O)cc2)cc1 (stereo unspecified) | 67.9 | 64.5 | 62.3 | 88.7 | 49.3 | 55.7 | 95.9 | > 100 | 27.7 | > 100 | 65.3 | 34 | 29.6 | > 100 |  |  |  |  | 
2 | CN(C)/C(N)=N/C(N)=Nc1cccc(Cl)c1 | > 100 |  | > 100 | > 100 | > 100 | > 100 | > 100 | > 100 | 74.6 | > 100 | > 100 | > 100 | > 100 | > 100 | > 100 |  |  |  | 
3 | N#Cc1nc(C2CC2)oc1N | > 100 | > 100 | > 100 | > 100 | > 100 | > 100 | > 100 | > 100 |  | > 100 | > 100 | > 100 | > 100 | > 100 | > 100 |  |  |  | 
4 | Cc1nc2ccccc2c(=O)n1-c1n[nH]c2ccccc12 |  | > 100 | > 100 | > 100 | > 100 | > 100 | > 100 | > 100 | > 100 | > 100 | > 100 | > 100 | > 100 | > 100 | > 100 |  |  |  | 
5 | COC(=O)Nc1nc2ccc(Oc3ccc4nc(NC(=O)OC)[nH]c4c3)cc2[nH]1 | > 100 |  | > 100 | > 100 | 0.166 | > 100 | > 100 | > 63.7 | 4.19 | > 32.8 | > 78.5 | > 100 | > 49.6 | > 26.7 | > 100 |  |  |  | 
6 | N#Cc1nc(CSCc2ccccc2)oc1N | > 100 | > 100 |  | > 100 | > 100 | > 100 | > 100 | > 100 |  | > 100 | > 100 | > 100 | > 100 |  | > 100 |  |  |  | 
7 | CCC(C)C(C(=O)N/N=C1/SCC(=O)N1C)C(=O)N/N=C1/SCC(=O)N1C (stereo unspecified) | > 100 |  | > 100 | > 100 | > 100 | > 100 | > 100 | > 100 | > 100 | > 100 | > 100 | > 100 | > 100 | > 100 | > 100 |  |  |  | 
8 | FC(F)(F)c1nc2ccc(SSc3ccc4nc(C(F)(F)F)[nH]c4c3)cc2[nH]1 | > 100 |  | > 100 | > 100 | > 100 | > 100 | > 100 | > 100 | > 100 | > 100 | > 100 | > 100 | > 100 | 65 | > 100 | > 100 | > 100 | > 100 | > 100
9 | CNC(=O)CCNC(=O)CCC(=O)N(C)C | > 100 |  | > 100 | > 100 | > 100 | > 100 | > 100 | > 100 | > 100 | > 100 | > 100 | > 100 | > 100 | > 100 | > 100 |  |  |  | 
10 | CSc1c(C#N)c(O)n(-c2ccc(C)cc2)c(=O)c1C#N | > 100 |  | > 100 | > 100 | > 100 |  | > 100 | > 100 | > 100 | > 100 | > 100 | > 100 | > 100 | > 100 | > 100 |  |  |  | 
11 | CC1=C(C(=O)N[C@@H](Cc2ccccc2)C(=O)O)N2C(=O)[C@@H](NC(=O)[C@@H](N)CC(C)C)[C@H]2SC1 | > 100 | > 100 | > 100 | > 100 | > 100 | > 100 | > 100 | > 100 | > 100 | > 100 | > 100 |  | > 100 | > 100 |  |  |  |  | 
12 | COc1cccc(/C(CC(O)(C(F)(F)F)C(F)(F)F)=N\N(C)C)c1 | > 100 | > 100 | > 100 | > 100 | > 100 | > 100 |  | > 100 | > 100 | > 100 | > 100 | > 100 | > 100 | > 100 | > 100 |  |  |  | 
13 | COC1(C(C)(C)C)C=C(C(C)(C)C)P(=O)(O)O1 (stereo unspecified) | > 100 |  | > 100 | > 100 | > 100 | > 100 | > 100 | > 100 | > 100 |  | > 100 | > 100 | > 100 | > 100 | > 100 |  |  |  | 
14 | CSc1ccccc1P(c1ccccc1SC)c1ccccc1SC | > 100 | > 100 | > 100 | > 100 | > 100 | > 100 | > 100 | > 100 | > 100 | > 100 |  |  | > 100 | > 100 | > 100 |  |  |  | 
15 | NCCC(=O)N[C@H](Cc1cc(O)c(O)c(SCC(NC(=O)CC[C@H](N)C(=O)O)C(=O)NCC(=O)O)c1)C(=O)O (stereo partly specified) | > 50 |  | > 50 | > 50 | > 50 | > 50 | > 50 | > 50 | > 50 |  | > 50 | > 50 | > 50 | > 50 | > 50 |  |  |  | 
16 | Cc1cccc(-n2c(C)nc3ccc(NC4OC(CO)C(O)C(O)C4O)cc3c2=O)c1 (stereo unspecified) | > 100 |  | > 100 | > 100 | > 100 | > 100 | > 100 | > 100 | > 100 | > 100 | > 100 | > 100 | > 100 | > 100 | > 100 |  |  |  | 
